How the values were obtained:
[1] = system: hCLRN1^N48K-YFP; clrn1^+/+ larvae; assay: Larval survival/lethality by TG or ART dose and treatment duration; type: in vivo, zebrafish; set-up: key: ‘S’ = Surviving; ‘L’ = Lethal
Protocol: (§1) Thapsigargin (TG, 1 mg, Sigma-Aldrich, #T9033) stock in 100% DMSO was diluted in E3 medium to make the required final concentration of the drug. Five different concentrations that were earlier reported to induce ER stress and are non-toxic or lower lethal dose (LD50) in the zebrafish (0.1, 0.5, 1.0, 2.5, 5 μM concentrations) were used in this study. A total of 25 larvae per dosage and treatment duration from the genotypes hCLRN1^N48K-YFP; clrn1^+/+ and hCLRN1-YFP; clrn1^+/+, no older than 72 hours post fertilization (hpf) at the start of the experiment, were placed in a well of 12-well uncoated culture plate (BD Falcon, Canaan, CT). For ER stress induction, larvae were incubated in different dosage of TG from 1 hr to overnight at 28.5° C., followed by three times wash with E3 medium at 28.5° C. (Table 2) and hair cells from the hCLRN1^N48K-YFP; clrn1^+/+ and hCLRN1-YFP; clrn1^+/+ lines were examined for the respective protein distribution pattern in the hair cell bundle and the cell body. Live confocal images of ‘O’ and ‘ML1’ neuromasts per larvae were capture using Leica SP2 confocal microscope with 40× oil immersion objective. Unadjusted 1 micron middle section images of four hair bundles per ML1 neuromast of larvae from TG treated and untreated groups were analyzed using Image J software version v. 1.48 (FIG. 4). The hair bundle trafficked amount of hCLRN1^N48K protein corresponds to the change in YFP intensity in the hair bundle in the TG treated larvae. Quantification of YFP fluorescence intensity was carried out as described in the previous experiment for unconventional trafficking of hCLRN1^N48K-YFP by hGRASP55 cargos. […] Student's t-test was used to confirm the observed changes in the YFP intensity in the hair bundles of TG treatment compared to untreated hCLRN1^N48K-YFP; clrn1^+/+ larvae, is significant (FIG. 4J).
Arthemisinin (ART, 100 mg, Sigma-Aldrich, #361593) in 100% DMSO was diluted in E3 medium to make the final concentration. Five different concentrations within the range of reported ER stress inducing level in the zebrafish (0.1, 0.25, 0.4, 0.5, and 1 μM concentrations) were used in this study. A total of 25 larvae, no older than 72 hpf at the start of the experiment, were placed in a well of 12-well uncoated culture plate (BD 35 Falcon, Canaan, CT). For ER stress induction, larvae were exposed in different dosage of ART for different duration at 28.5° C. (Table 3) and washed three times with E3 medium, and hair cells from the hCLRN1-YFP; clrn1^+/+ larvae and hCLRN1^N48K-YFP; clrn1^+/+ larvae were examined for the respective protein distribution pattern in the hair cell bundle and the cell body. Live confocal Z-stack images of otic ‘O’ and middle ‘ML’ neuromasts per larvae of hCLRN1-YFP; clrn1^+/+ larvae and hCLRN1^N48K-YFP; clrn1^+/+ genotypes from the untreated group in the E3 medium, 0.01% DMSO treatment group and ART treatment group were capture using Leica SP2 confocal microscope at 40× oil immersion objective. Hair cells from 2 otic (0) and 2 middle (ML) neuromasts per larvae were examined for the change in YFP intensity in the hair bundle and cell body. From the captured confocal images of these neuromast hair cells, unadjusted 1 micron middle section images of 4 mature hair bundles from ML1 neuromast per larvae were considered for the YFP intensity quantification in unadjusted ROI covering the middle section of each hair bundles using the imageJ software. […] The hair bundle trafficked amount of hCLRN1^N48K protein corresponds to the change in YFP intensity in the hair bundle in the ART treated larvae. Quantification of YFP fluorescence intensity was carried out as described in the previous experiment for unconventional trafficking of hCLRN1^N48K-YFP by hGRASP55 cargos. Student's t-test was used to confirm the observed changes in the YFP intensity in the hair bundles of ART treatment compared to untreated and TG treated hCLRN1^N48K-YFP; clrn1^+/+ larvae, is significant (FIG. 4J).

hCLRN1-YFP = assay: Localization of wild-type hCLRN1-YFP in neuromast hair cells of hCLRN1-YFP; clrn1^+/+ larvae treated with SERCA inhibitors; type: in vivo, zebrafish; settings: for Effect on pattern of localization of wild-type hCLRN1-YFP to the hair cell's bundle or plasma membrane: clrn1^+/+ larvae treated with TG or ART; for YFP intensity in the ROI in hair bundles (Mean±SEM): clrn1^+/+ larvae, 1 uM TG or 0.4 uM ART + 0.01% DMSO in E3 medium, E3 medium 62.82±2.15
Protocol: as §1
Arthemisinin (ART, 100 mg, Sigma-Aldrich, #361593) in 100% DMSO was diluted in E3 medium to make the final concentration. Five different concentrations within the range of reported ER stress inducing level in the zebrafish (0.1, 0.25, 0.4, 0.5, and 1 μM concentrations) were used in this study. A total of 25 larvae, no older than 72 hpf at the start of the experiment, were placed in a well of 12-well uncoated culture plate (BD 35 Falcon, Canaan, CT). […] From the captured confocal images of these neuromast hair cells, unadjusted 1 micron middle section images of 4 mature hair bundles from ML1 neuromast per larvae were considered for the YFP intensity quantification in unadjusted ROI covering the middle section of each hair bundles using the imageJ software. […] Quantification of YFP fluorescence intensity was carried out as described in the previous experiment for unconventional trafficking of hCLRN1^N48K-YFP by hGRASP55 cargos. […]

C[C@@H]1CC[C@H]2[C@@H](C)C(=O)O[C@@H]3O[C@@]4(C)CC[C@@H]1[C@]32OO4 [ART, Artemisinin]
Larvae survival ([1]; ART 0.4 μM, exposure 8 h): L | Larvae survival ([1]; ART 0.4 μM, exposure 10 h): L | Larvae survival ([1]; ART 0.5 μM, exposure 1 h): L | Larvae survival ([1]; ART 0.5 μM, exposure 2 h): L | Larvae survival ([1]; ART 0.5 μM, exposure 4 h): L | Larvae survival ([1]; ART 0.5 μM, exposure 6 h): L | Larvae survival ([1]; ART 0.5 μM, exposure 8 h): L | Larvae survival ([1]; ART 0.5 μM, exposure 10 h): L | Larvae survival ([1]; ART 1.0 μM, exposure 1 h): L | Larvae survival ([1]; ART 1.0 μM, exposure 2 h): L | Larvae survival ([1]; ART 1.0 μM, exposure 4 h): L | Larvae survival ([1]; ART 1.0 μM, exposure 6 h): L | Larvae survival ([1]; ART 1.0 μM, exposure 8 h): L | Larvae survival ([1]; ART 1.0 μM, exposure 10 h): L | Effect on pattern of localization of wild-type hCLRN1-YFP to the hair cell's bundle or plasma membrane (hCLRN1-YFP): did not affect the pattern of localization | YFP intensity in the ROI in hair bundles (Mean±SEM) (hCLRN1-YFP): 71.32±2.05

C/C=C(/C)C(=O)O[C@H]1C(C)=C2[C@H]([C@@H]1OC(=O)CCCCCCC)[C@@](C)(OC(C)=O)C[C@H](OC(=O)CCC)[C@@]1(O)[C@H]2OC(=O)[C@@]1(C)O [TG, Thapsigargin]
Larvae survival ([1]; TG 0.1 μM, exposure 1 h): S | Larvae survival ([1]; TG 0.1 μM, exposure 2 h): S | Larvae survival ([1]; TG 0.1 μM, exposure 3 h): S | Larvae survival ([1]; TG 0.1 μM, exposure 4 h): S | Larvae survival ([1]; TG 0.1 μM, exposure 8 h): S | Larvae survival ([1]; TG 0.1 μM, exposure 16 h): S | Larvae survival ([1]; TG 0.5 μM, exposure 1 h): S | Larvae survival ([1]; TG 0.5 μM, exposure 2 h): S | Larvae survival ([1]; TG 0.5 μM, exposure 3 h): S | Larvae survival ([1]; TG 0.5 μM, exposure 4 h): S | Larvae survival ([1]; TG 0.5 μM, exposure 8 h): S | Larvae survival ([1]; TG 0.5 μM, exposure 16 h): L | Larvae survival ([1]; TG 1.0 μM, exposure 1 h): S | Larvae survival ([1]; TG 1.0 μM, exposure 2 h): S | Larvae survival ([1]; TG 1.0 μM, exposure 3 h): S | Larvae survival ([1]; TG 1.0 μM, exposure 4 h): S | Larvae survival ([1]; TG 1.0 μM, exposure 8 h): L | Larvae survival ([1]; TG 1.0 μM, exposure 16 h): L | Larvae survival ([1]; TG 2.5 μM, exposure 1 h): L | Larvae survival ([1]; TG 2.5 μM, exposure 2 h): L | Larvae survival ([1]; TG 2.5 μM, exposure 3 h): L | Larvae survival ([1]; TG 2.5 μM, exposure 4 h): L | Larvae survival ([1]; TG 2.5 μM, exposure 8 h): L | Larvae survival ([1]; TG 2.5 μM, exposure 16 h): L | Larvae survival ([1]; TG 5.0 μM, exposure 1 h): L | Larvae survival ([1]; TG 5.0 μM, exposure 2 h): L | Larvae survival ([1]; TG 5.0 μM, exposure 3 h): L | Larvae survival ([1]; TG 5.0 μM, exposure 4 h): L | Larvae survival ([1]; TG 5.0 μM, exposure 8 h): L | Larvae survival ([1]; TG 5.0 μM, exposure 16 h): L | Effect on pattern of localization of wild-type hCLRN1-YFP to the hair cell's bundle or plasma membrane (hCLRN1-YFP): did not affect the pattern of localization | YFP intensity in the ROI in hair bundles (Mean±SEM) (hCLRN1-YFP): 68.57±1.36

Reference: patent US11865103B2, “Methods of treating disorders associated with glycosylation defective proteins” (CASE WESTERN RESERVE UNIVERSITY, priority 2016, dated 2024)
